# Measurements as given in publication PMC5578959, “Selective LRRK2 kinase inhibition reduces phosphorylation of endogenous Rab10 and Rab12 in human peripheral mononuclear blood cells” (Scientific Reports, 2017).
# Columns and labels:
# [1] = molecular target: T1, LRRK2-pSer935 (Homo sapiens, UniProt Q5S007); assay: Western Blot, cultured immune stimulated human PBMCs; format: cell-based; settings: 100 nM, 1hr and 24hrs, n = 10 donors
# T1 construct: human primary cells expressing endogenous levels of LRRK2; endogenous in cells; host or cells: human PBMCs from healthy donors
# Description: PBMC were isolated from fresh blood collected within a maximal time of 4 hours after blood collection. Leucosep tubes (Greiner 227290) was added 15 ml Ficoll (GE Healthcare 17-440-03) and spun 30 s at 1000 × g. Blood was diluted 1:1 using D-PBS 1X (Gibco 14190), transfered to the Leucosep and centrifuged at 800 g for 15 min without brake. The upper layer corresponding to the diluted plasma was removed and the PBMC layer collected using a pipette or by pouring into a clean BD Falcon 50 ml tube. Cells were re-suspended and washed four times with 10 ml of D-PBS 1X (Gibco 14190) followed by centrifugation at 250 g for 10 min with brake at room temperature. The supernatant was discarded and the cells re-suspended in Complete medium equilibrated to 37 °C. The number of dead and living cells were counted on a Nucleocounter and used to calculate percent viability. […]
# HEK293 cells were plated at a density of 1 × 10^6 cells/well in 6-well plates pre-coated for 1 hr at 37 °C with poly-L-lysin. […] The proteins were visually detected by infrared imaging using Odyssey CLx (LI-COR, Nebraska, US). Membranes were scanned and band intensities were quantified using the Image Studio version 3.1.4 (LI-COR, Nebraska).
# [2] = system: Rab10-pThr73; assay: as above; format: cell-based; settings: 100 nM
# Description: Freshly isolated PBMCs were plated at a density ranging from 7–20 × 10^6 cells in 10 cm petri dishes (Costar 3262) in RPMI-1640 media (Gibco 61870–010) supplemented with 10% non-heat inactivated FBS, 5 ml Antimycotic (Sigma cat:5965) with or without an immune stimulation cocktail consisting of 400 nM phorbol 12-myristate 13-acetate (PMA) and 100 ng/ml interferon-γ (INF-γ). After 48 hrs in culture the cultures were added a fifth of the volume media containing 5x the final concentration of the respective LRRK2 inhibitor with or without PMA and interferon-γ. […] After 72 hrs in culture the PBMC’s were harvested, pelleted and fresh-frozen on dry-ice. An aliquot of PBMCs was used for assessment of PBMC yield and viability.
# Cell pellets were resuspended and solubilized in 100 µL lysis buffer (50 mM Tris hydrochloride, 1 mM magnesium chloride, 1% Triton, 0.1% sodium dodecyl sulfate (SDS), pH 8.0) on ice for 20 minutes and then centrifuged at 20,000 g for 30 minutes at 4 °C. The solubilized crude cell lysate was size mobility separated by SDS-polyacrylamide gel electrophoresis (SDS-PAGE). LRRK2 was separated on a 3–8% Tris-Acetate gel (NuPAGE® Tris-Acetate Mini Gels, Life Technologies, Paisley, UK) and Rab10 and Rab12 were separated using a NuPAGE® Novex 4–12% Bis-Tris Gel (Invitrogen, California, US). An amount of 10 µg total protein was loaded in each well. Proteins were transferred to immobilon-FL PVDF membranes (Millipore, Billerica, US). […] The proteins were visually detected by infrared imaging using Odyssey CLx (LI-COR, Nebraska, US). Membranes were scanned and band intensities were quantified using the Image Studio version 3.1.4 (LI-COR, Nebraska).
# [3] = system: Rab12-pSer106; assay: as above; format: cell-based; settings: 100 nM, 1hr or 24 hrs
# Description: Cell pellets were resuspended and solubilized in 100 µL lysis buffer (50 mM Tris hydrochloride, 1 mM magnesium chloride, 1% Triton, 0.1% sodium dodecyl sulfate (SDS), pH 8.0) on ice for 20 minutes and then centrifuged at 20,000 g for 30 minutes at 4 °C. […] The proteins were visually detected by infrared imaging using Odyssey CLx (LI-COR, Nebraska, US). Membranes were scanned and band intensities were quantified using the Image Studio version 3.1.4 (LI-COR, Nebraska).
# [4] = system: T2, CDK2; assay: KiNativ profiling in human PBMCs; format: binding
# T2 construct: purchased ActivX Technologies (KiNativ)
# Description: (§1) Compounds were shipped to ActivX Technologies (San Diego, US) where LRRK2 target engagement and broad kinase profiling was performed using KiNativ™ procedures. Live cell treatment of human peripheral blood mononuclear cells (PBMCs) at two compound concentrations (1 µM and 0.1 µM) were used to evaluate and compare in vitro target engagement and kinase selectivity, respectively (see Supplementary File 1).
# [5] = system: T3, CaMK4; assay: KiNativ profiling in human PBMCs; format: binding
# T3 construct: purchased ActivX Technologies (KiNativ)
# Description: as §1
# [6] = system: T4, LATS2; assay: KiNativ profiling in human PBMCs; format: binding
# T4 construct: purchased ActivX Technologies (KiNativ)
# Description: as §1
# [7] = system: T5, MAP2K3; assay: KiNativ profiling in human PBMCs; format: binding
# T5 construct: purchased ActivX Technologies (KiNativ)
# Description: as §1
# [8] = system: MARK1,MARK2; assay: KiNativ profiling in human PBMCs; format: binding; settings: Lys1
# Description: as §1
# [9] = system: T6, MST3; assay: KiNativ profiling in human PBMCs; format: binding
# T6 construct: purchased ActivX Technologies (KiNativ)
# Description: as §1
# [10] = system: T7, NDR1; assay: KiNativ profiling in human PBMCs; format: binding
# T7 construct: purchased ActivX Technologies (KiNativ)
# Description: as §1
# [11] = system: T8, PIK3CG; assay: KiNativ profiling in human PBMCs; format: binding; settings: ATP
# T8 construct: purchased ActivX Technologies (KiNativ)
# Description: as §1
# [12] = system: T9, STLK5; assay: KiNativ profiling in human PBMCs; format: binding
# T9 construct: purchased ActivX Technologies (KiNativ)
# Description: as §1
# [13] = system: ZC1/HGK,ZC2/TNIK,ZC3/MINK; assay: KiNativ profiling in human PBMCs; format: binding; settings: Lys2
# Description: as §1
# T1 sequence (Q5S007 whole entry): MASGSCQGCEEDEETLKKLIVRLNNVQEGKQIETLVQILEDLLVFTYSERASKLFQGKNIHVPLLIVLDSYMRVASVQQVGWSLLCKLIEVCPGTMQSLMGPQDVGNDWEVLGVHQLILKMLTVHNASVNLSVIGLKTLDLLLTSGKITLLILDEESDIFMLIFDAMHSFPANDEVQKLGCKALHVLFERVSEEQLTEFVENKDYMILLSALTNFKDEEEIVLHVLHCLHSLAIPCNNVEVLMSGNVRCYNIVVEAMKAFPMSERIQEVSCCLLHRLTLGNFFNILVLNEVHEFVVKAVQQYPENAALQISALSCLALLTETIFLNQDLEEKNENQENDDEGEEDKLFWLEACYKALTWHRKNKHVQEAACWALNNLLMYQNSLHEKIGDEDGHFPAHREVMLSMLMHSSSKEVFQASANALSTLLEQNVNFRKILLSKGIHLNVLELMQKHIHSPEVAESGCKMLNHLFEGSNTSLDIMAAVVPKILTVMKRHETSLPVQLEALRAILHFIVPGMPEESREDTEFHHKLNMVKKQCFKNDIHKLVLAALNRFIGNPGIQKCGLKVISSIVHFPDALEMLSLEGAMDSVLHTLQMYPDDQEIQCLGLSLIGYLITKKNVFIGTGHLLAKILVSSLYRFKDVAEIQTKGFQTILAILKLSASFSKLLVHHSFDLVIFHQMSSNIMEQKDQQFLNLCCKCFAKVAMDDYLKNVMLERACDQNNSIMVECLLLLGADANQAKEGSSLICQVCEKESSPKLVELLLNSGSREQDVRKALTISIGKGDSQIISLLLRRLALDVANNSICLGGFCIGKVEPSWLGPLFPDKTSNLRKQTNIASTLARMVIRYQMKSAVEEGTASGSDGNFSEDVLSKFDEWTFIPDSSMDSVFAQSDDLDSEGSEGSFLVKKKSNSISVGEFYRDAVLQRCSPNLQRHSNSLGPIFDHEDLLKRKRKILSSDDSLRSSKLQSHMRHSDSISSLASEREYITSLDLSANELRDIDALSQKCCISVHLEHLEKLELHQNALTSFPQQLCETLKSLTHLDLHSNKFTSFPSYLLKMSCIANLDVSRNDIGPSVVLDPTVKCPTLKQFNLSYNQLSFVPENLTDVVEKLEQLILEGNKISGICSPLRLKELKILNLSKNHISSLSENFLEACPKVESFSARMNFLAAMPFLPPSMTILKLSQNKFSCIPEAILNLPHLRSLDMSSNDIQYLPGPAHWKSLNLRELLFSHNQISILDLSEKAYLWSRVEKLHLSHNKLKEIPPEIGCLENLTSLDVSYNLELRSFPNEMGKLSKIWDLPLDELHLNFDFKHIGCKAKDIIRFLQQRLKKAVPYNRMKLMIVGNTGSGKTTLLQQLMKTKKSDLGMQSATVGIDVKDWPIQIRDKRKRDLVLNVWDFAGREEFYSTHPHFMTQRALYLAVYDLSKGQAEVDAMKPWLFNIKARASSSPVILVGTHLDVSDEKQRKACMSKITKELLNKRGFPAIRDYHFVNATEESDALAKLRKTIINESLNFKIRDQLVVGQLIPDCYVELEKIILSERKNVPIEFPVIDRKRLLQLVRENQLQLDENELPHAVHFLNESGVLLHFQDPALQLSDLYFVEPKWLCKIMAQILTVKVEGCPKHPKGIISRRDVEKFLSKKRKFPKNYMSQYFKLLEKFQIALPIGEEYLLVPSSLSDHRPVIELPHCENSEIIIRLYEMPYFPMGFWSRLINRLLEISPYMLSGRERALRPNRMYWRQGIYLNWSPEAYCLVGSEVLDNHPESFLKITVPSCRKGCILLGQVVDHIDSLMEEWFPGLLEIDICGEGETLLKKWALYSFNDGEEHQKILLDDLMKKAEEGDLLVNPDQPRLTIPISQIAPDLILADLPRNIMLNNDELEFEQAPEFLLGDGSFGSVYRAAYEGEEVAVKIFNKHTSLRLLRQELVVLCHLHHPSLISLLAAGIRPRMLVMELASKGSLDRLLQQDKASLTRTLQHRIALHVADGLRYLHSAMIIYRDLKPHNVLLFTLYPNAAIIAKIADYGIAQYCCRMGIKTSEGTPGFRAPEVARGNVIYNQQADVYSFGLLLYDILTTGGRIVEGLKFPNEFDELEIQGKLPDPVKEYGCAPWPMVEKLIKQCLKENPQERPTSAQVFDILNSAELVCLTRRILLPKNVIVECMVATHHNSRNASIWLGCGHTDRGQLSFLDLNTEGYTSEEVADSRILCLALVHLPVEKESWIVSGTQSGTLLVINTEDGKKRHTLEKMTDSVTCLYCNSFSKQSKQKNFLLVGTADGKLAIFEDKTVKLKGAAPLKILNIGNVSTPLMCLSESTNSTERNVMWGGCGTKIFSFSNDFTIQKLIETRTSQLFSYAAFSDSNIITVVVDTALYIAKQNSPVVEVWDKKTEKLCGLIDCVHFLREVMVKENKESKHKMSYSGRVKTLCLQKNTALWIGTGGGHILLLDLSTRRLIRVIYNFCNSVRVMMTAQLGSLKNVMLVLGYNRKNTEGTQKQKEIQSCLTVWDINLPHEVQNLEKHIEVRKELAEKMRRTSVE
compound,measurement,setting,value
Cc1cccc(-c2cc(Nc3ccn(C)n3)nc3[nH]cc(C#N)c23)c1 [Lu AF58786],LRRK2 kinase inhibition (LRRK2-pSer935/total LRRK2),[1],confirmed
same,inhibition of Rab10 phosphorylation (Rab10-pThr73/total Rab10),[2]; 1 hr,not at 1 hr
same,inhibition of Rab10 phosphorylation (Rab10-pThr73/total Rab10),[2]; 24 hrs,able to inhibit Rab10 phosphorylation at 24 hrs
same,inhibition of Rab12 phosphorylation (Rab12-pSer106),[3],not able to significant inhibit
same,Inhibition,"[4]; 0.1µM, Lys1",5.0%
same,Inhibition,"[4]; 0.1µM, Lys2",7.1%
same,Inhibition,"[4]; 1µM, Lys1",9.2%
same,Inhibition,"[4]; 1µM, Lys2",5.2%
same,Inhibition,"[5]; 0.1µM, Lys1",11.0%
same,Inhibition,"[5]; 0.1µM, Lys2",14.0%
same,Inhibition,"[5]; 1µM, Lys1",23.7%
same,Inhibition,"[5]; 1µM, Lys2",12.9%
same,Inhibition,"[6]; 0.1µM, Lys2",9.3%
same,Inhibition,"[6]; 1µM, Lys2",-1.5%
same,Inhibition,"[7]; 0.1µM, Lys1",-31.6%
same,Inhibition,"[7]; 0.1µM, Lys2",-1.9%
same,Inhibition,"[7]; 1µM, Lys1",-37.3%
same,Inhibition,"[7]; 1µM, Lys2",0.27%
same,Inhibition,[8]; 0.1µM,16.5%
same,Inhibition,[8]; 1µM,7.1%
same,Inhibition,"[9]; 0.1µM, Lys2",12.8%
same,Inhibition,"[9]; 1µM, Lys2",1.2%
same,Inhibition,"[10]; 0.1µM, Lys1",0.33%
same,Inhibition,"[10]; 0.1µM, Lys2",16.5%
same,Inhibition,"[10]; 1µM, Lys1",-11.0%
same,Inhibition,"[10]; 1µM, Lys2",0.751%
same,Inhibition,[11]; 0.1µM,8.8%
same,Inhibition,[11]; 1µM,2.1%
same,Inhibition,"[12]; 0.1µM, Activation Loop",3.4%
same,Inhibition,"[12]; 0.1µM, Lys2",16.0%
same,Inhibition,"[12]; 1µM, Activation Loop",-4.3%
same,Inhibition,"[12]; 1µM, Lys2",19.2%
same,Inhibition,[13]; 0.1µM,6.6%
same,Inhibition,[13]; 1µM,-3.7%
Cn1cc(-c2c[nH]c3ncnc(N4CCOCC4)c23)cc1C#N [PFE-360],LRRK2 kinase inhibition (LRRK2-pSer935/total LRRK2),[1],confirmed
same,inhibition of Rab10 phosphorylation (Rab10-pThr73/total Rab10),[2]; 1 hr,not at 1 hr
same,inhibition of Rab10 phosphorylation (Rab10-pThr73/total Rab10),[2]; 24 hrs,able to inhibit Rab10 phosphorylation at 24 hrs
same,inhibition of Rab12 phosphorylation (Rab12-pSer106),[3],not able to significant inhibit
same,% Inhibition,"[4]; 0.1µM, Lys1",-5.8%
same,% Inhibition,"[4]; 0.1µM, Lys2",4.2%
same,% Inhibition,"[4]; 1µM, Lys1",-5.5%
same,% Inhibition,"[4]; 1µM, Lys2",-2.9%
same,% Inhibition,"[5]; 0.1µM, Lys1",-10.2%
same,% Inhibition,"[5]; 0.1µM, Lys2",15%
same,% Inhibition,"[5]; 1µM, Lys1",-8.5%
same,% Inhibition,"[5]; 1µM, Lys2",9.5%
same,% Inhibition,"[6]; 0.1µM, Lys1",-10.2%
same,% Inhibition,"[6]; 0.1µM, Lys2",5.5%
same,% Inhibition,"[6]; 1µM, Lys1",16.6%
same,% Inhibition,"[6]; 1µM, Lys2",-0.4%
same,% Inhibition,"[7]; 0.1µM, Lys1",-7.9%
same,% Inhibition,"[7]; 0.1µM, Lys2",9.4%
same,% Inhibition,"[7]; 1µM, Lys1",11.1%
same,% Inhibition,"[7]; 1µM, Lys2",-11.7%
same,% Inhibition,[8]; 0.1µM,6.2%
same,% Inhibition,[8]; 1µM,3.2%
same,% Inhibition,"[9]; 0.1µM, Lys1",-15.8%
same,% Inhibition,"[9]; 0.1µM, Lys2",-6.1%
same,% Inhibition,"[9]; 1µM, Lys1",-21.2%
same,% Inhibition,"[9]; 1µM, Lys2",-16.2%
same,% Inhibition,"[10]; 0.1µM, Lys1",-16.4%
same,% Inhibition,"[10]; 0.1µM, Lys2",5.8%
same,% Inhibition,"[10]; 1µM, Lys1",-6%
same,% Inhibition,"[10]; 1µM, Lys2",1.6%
same,% Inhibition,[11]; 0.1µM,-1.2%
same,% Inhibition,[11]; 1µM,-7%
same,% Inhibition,"[12]; 0.1µM, Activation Loop",-11%
same,% Inhibition,"[12]; 0.1µM, Lys2",10.9%
same,% Inhibition,"[12]; 1µM, Activation Loop",-2.2%
same,% Inhibition,"[12]; 1µM, Lys2",-15.8%
same,% Inhibition,[13]; 0.1µM,10.3%
same,% Inhibition,[13]; 1µM,-7.3%
